Entries after “also recorded” stand apart in the source; their conditions may differ. Non-standard residues stand in square brackets, D forms with d. Residues, ends and D or L forms follow the SMILES beside them.
Key:
[1] = test system: calorie restricted male C57BL/6J ob/ob mice; assay: Oral delivery (gavage) in calorie restricted (40%) ob/ob mice: body weight, serum glucose, serum osteocalcin; type: in vivo, mouse
Procedure: Six week-old male C57BL/6J wild type and ob/ob mice were obtained from Jackson Laboratories (Bar Harbor, Me., USA). The animals were housed individually polycarbonate cages fitted with stainless steel wire lids and air filters, and supported on ventilated racks (Thoren Caging Systems, Hazelton, Pa., USA) in the Albany Medical College Animal Resources Facility. The mice were maintained at a constant temperature (24° C.) with lights on from 07:00 to 19:00, and allowed food and water ad libitum for 6 days following arrival. During the test period, mice were fed ad libitum or calorie restricted to 60% of normal. Water intake was allowed ad libitum.
On day 1 of the study, and on each day thereafter, a water bottle containing 200 ml of water was added to each cage between 09:00 and 10:00 h. Mice fed ad libitum were given 200 g of pelleted rodent diet (Prolab Rat, Mouse, Hamster 3000, St. Louis, Mo.; 22% crude protein, 5% crude fat, 5% fiber, 6% ash, 2.5% additional minerals) between 09:00 and 10:00 h each day. The mice were weighed once daily between 09:00 and 10:00 h on an Acculab V-333 electronic balance (Cole-Parmer, Vernon Hills, Ill., USA). Calorie-restricted wild type and ob/ob mice received 60% of normal daily intake. Twenty four hours later, food and water remaining in the cages was measured to the nearest 0.1 g and 0.1 ml, respectively. To assure fasting glucose levels on days in which blood glucose was measured, food was removed from the cages between 09:00 and 10:00 h, and replaced immediately before the beginning of the dark cycle.
Mouse [D-Leu-4]OB3 was prepared commercially as a C-terminal amide by Bachem (Torrance, Calif., USA). The peptide was dissolved in 0.3% Intravail A3® (Aegis Therapeutics, San Diego, Calif. USA) reconstituted in water, and administered by gavage once daily for 10 days at a concentration of 1 mg/200 μl immediately before the start of the dark cycle. Is has previously been shown that this is the optimum concentration of mouse [D-Leu-4]-OB3 and its related bioactive peptide amides, for regulating energy expenditure, glucose levels, and insulin sensitivity in two genetically obese mouse models (see Rozhayskaya-Arena M. et al., Endocrinology 141:2501-2517 (2000); Grasso P. et al. Regulatory Pep. 101:123-129 (2001); Grasso P. et al., Diabetes 48:2204-2209 (1999), Grasso P. et al., Endocrinology 138:1413-1418 (1997); Grasso P. et al., Regulatory Peptides 85:93-100 (1999); and Grasso P. et al., Diabetes 48:2204-2209 (1999)). Vehicle injected control mice received 200 ul of Intravail A3® only.
Initial blood samples were drawn by snipping the end of the tail of each mouse at the beginning of the study (day 0); subsequent samples were obtained by gently removing the scab. Blood was taken 1 h before the onset of the dark period at the beginning of the study, and after 2, 4, 6, 8, and 10 days of treatment. The blood was applied to a test strip, and glucose levels were measured with a Glucometer Elite glucose meter (Bayer, Elkhart, Ind., USA).
At the end of the study, the mice were anesthetized with isoflurane (5%) and exsanguinated by cardiac puncture. Euthanasia was confirmed by cervical dislocation. The blood was collected in sterile nonheparinized plastic centrifuge tubes and allowed to stand at room temperature for 1 h. The clotted blood was rimmed from the walls of the tubes with sterile wooden applicator sticks. Individual serum samples were prepared by centrifugation for 30 min at 2600×g in an Eppendorf 5702R, A-4-38 rotor (Eppendorf North America, Westbury, N.Y., USA). The serum samples in each experimental group (n=6) were pooled and stored frozen until assayed for osteocalcin content.
Serum osteocalcin in the pooled samples was assayed in triplicate with a mouse osteocalcin ELISA kit obtained from Biomedical Technologies, Inc. (Stoughton, Mass., USA) according to the instructions supplied by the manufacturer. […]

[2] = test system: ob/ob mouse model; assay: Earlier study of OB3 and D-amino acid-substituted OB3 analogs: body weight gain, food and water intake, blood glucose; type: in vivo
Text: Single-point D-amino acid substitution was used to study the structure-function relationships of each amino acid residue in OB3, and to increase its efficacy. The restricted domain represented by OB3 contains a functional epitope, which has the ability to mimic at least some of the effects of leptin on energy balance and glucose homeostasis.
The design of peptide ligands involved the introduction of conformational constraints into native sequences by techniques that include, but are not limited to, D-amino acid substitution or cyclization. (Hruby and Bonner, Methods Mol Biol. 35:201-40 (1994)). Systematic replacement of L-amino acids by their D-amino acid isoforms was used to determine the stereostructural requirements of specific residues in a peptide for peptide-receptor interaction, and to assess the contribution of certain secondary structural motifs, e.g., α-helix or β-turn, to the bioactivity of the peptide. (Hruby, Biopolymers 33(7):1073-82 (1993) and Hruby, Life Sci. 52(10):845-55 (1993)). This approach increased peptide resistance to enzymatic hydrolysis, and to enhance the properties of biologically active peptides, including receptor binding, functional potency, and duration of action. (See Fauchere et al., Adv. Drug Res., 23:127-139 (1992); Doherty et al., J. Med. Chem., 36:2585-2594 (1993); Kirby et al., J. Med. Chem., 36:3802-3808 (1993); Morita et al., FEBS Lett., 353:84-88 (1994)).
(See Rozhayskaya-Arena M, et al., Endocrinology 141:2501-2517 (2000); Grasso P et al., Regulatory Pep. 101:123-129 (2001)).

[3] = 1 mg/day, 10 days, gavage in Intravail

Question: What does the source list for `CC(C)C[C@@H](NC(=O)[C@H](CO)NC(=O)[C@H](CS)NC(=O)[C@@H](N)CO)C(=O)N1CCC[C@H]1C(=O)N[C@@H](CCC(N)=O)C(=O)N[C@H](C(N)=O)[C@@H](C)O` [mouse [D-Leu-4]-OB3] (H-SCS[dL]PQT-NH2; N-terminus assumed)?
Answer: Body weight (% of initial) [1, 3]: 90.0 ± 0.8 % of initial; Final body weight [1, 3]: 30.8 ± 0.6 g; Serum osteocalcin [1, 3]: 290.1 ± 3.2 ng/mL; serum glucose compared to calorie restriction alone ([1]; 10 days gavage): normalized levels; also recorded: significantly (P<0.001) reduced serum glucose levels to levels Seen in wild type mice allowed food ad libitum; serum osteocalcin, effect on decrease caused by calorie restriction ([1]; 10 days gavage): significantly elevated serum osteocalcin levels; also recorded: prevented this decrease; weight loss compared to calorie restriction with Intravail alone (words) ([1]; 10 days gavage): did not enhance this weight loss; also recorded: essentially the same; elevation of serum osteocalcin ([1]; after 10 days of treatment): 93.4%; Final serum glucose ([1]; after 10 days, 1 mg/day gavage in Intravail): 176.5 ± 32.8 mg/dL; Initial serum glucose ([1]; day 0): 480.2 ± 36.7 mg/dL; Initial body weight ([1]; day 0, 1 mg/day, 10 days, gavage in Intravail): 34.2 ± 0.4 g; effectiveness compared to the other D-amino acid-substituted analogs ([2]; compared to OB3, in most of the parameters measured): more effective than the other D-amino acid-substituted analogs; Water intake ([2]; mouse, in vivo): significantly reduced water intake; anorexigenic activity compared with OB3 ([2]; mouse, in vivo): greater anorexigenic activity than OB3; antihyperglycemic effect and its time course ([2]; mouse, in vivo): lowered blood glucose to levels seen in nondiabetic wild type mice within two days of peptide treatment; potency in reducing body weight gain relative to native OB3 ([2]; mouse, in vivo): 2.6 fold
